Results from ChEMBL document CHEMBL3400015, “Tertiary amides of Salinomycin: A new group of antibacterial agents against Bacillus anthracis and methicillin-resistant Staphylococcus epidermidis” (Bioorg Med Chem Lett, 2015).
Values after ≈ are worked out from the molar mass of the structure shown.

Assays:
Staphylococcus aureus [1] = experiment: Antimicrobial activity against Staphylococcus aureus ATCC 6538 after 18 hrs by twofold serial broth dilution method; type: functional; details: ATCC 6538, 18 h
Staphylococcus aureus [2] = experiment: Antimicrobial activity against Staphylococcus aureus […] after 18 hrs by twofold serial broth dilution method; type: functional
[3] = system: Staphylococcus epidermidis; experiment: Antimicrobial activity against Staphylococcus epidermidis ATCC 12228 after 18 hrs by twofold serial broth dilution method; type: functional; details: ATCC 12228, 18 h
[4] = system: Staphylococcus epidermidis; experiment: Antimicrobial activity against Staphylococcus epidermidis ATCC 35984 after 18 hrs by twofold serial broth dilution method; type: functional; details: ATCC 35984, 18 h
Escherichia coli [5] = experiment: Antimicrobial activity against Escherichia coli ATCC 25922 after 18 hrs by twofold serial broth dilution method; type: functional; details: ATCC 25922, 18 h
Escherichia coli [6] = experiment: Antimicrobial activity against Escherichia coli NCTC 8196 after 18 hrs by twofold serial broth dilution method; type: functional; details: NCTC 8196, 18 h
Pseudomonas aeruginosa [7] = experiment: Antimicrobial activity against Pseudomonas aeruginosa ATCC 15442 after 18 hrs by twofold serial broth dilution method; type: functional; details: ATCC 15442, 18 h
Pseudomonas aeruginosa [8] = experiment: Antimicrobial activity against Pseudomonas aeruginosa NCTC 6749 after 18 hrs by twofold serial broth dilution method; type: functional; details: NCTC 6749, 18 h
Pseudomonas aeruginosa [9] = experiment: Antimicrobial activity against Pseudomonas aeruginosa ATCC 27853 after 18 hrs by twofold serial broth dilution method; type: functional; details: ATCC 27853, 18 h
Bacillus anthracis = experiment: Antimicrobial activity against Bacillus anthracis 34F2 after 18 hrs by twofold serial broth dilution method; type: functional; details: 34F2, 18 h
Staphylococcus aureus [10] = experiment: Bactericidal activity against Staphylococcus aureus ATCC 25923 after 24 hrs; type: functional; details: ATCC 25923, 24 h, read-out: MBC99.9
Staphylococcus aureus [11] = experiment: Bactericidal activity against Staphylococcus aureus […] after 24 hrs; type: functional; details: read-out: MBC99.9
[12] = system: Staphylococcus epidermidis; experiment: Bactericidal activity against Staphylococcus epidermidis ATCC 12228 after 24 hrs; type: functional; details: ATCC 12228, 24 h, read-out: MBC99.9
[13] = system: Staphylococcus epidermidis; experiment: Bactericidal activity against Staphylococcus epidermidis ATCC 35984 after 24 hrs; type: functional; details: ATCC 35984, 24 h, read-out: MBC99.9
Escherichia coli [14] = experiment: Bactericidal activity against Escherichia coli NCTC 8196 after 24 hrs; type: functional; details: NCTC 8196, 24 h, read-out: MBC99.9
Pseudomonas aeruginosa [15] = experiment: Bactericidal activity against Pseudomonas aeruginosa NCTC 6749 after 24 hrs; type: functional; details: NCTC 6749, 24 h, read-out: MBC99.9
Pseudomonas aeruginosa [16] = experiment: Bactericidal activity against Pseudomonas aeruginosa ATCC 27853 after 24 hrs; type: functional; details: ATCC 27853, 24 h, read-out: MBC99.9
[17] = system: Staphylococcus epidermidis; experiment: Antimicrobial activity against methicillin-resistant Staphylococcus epidermidis isolate 403/10 after 18 hrs by twofold serial broth dilution method; type: functional; details: isolate 403/10, 18 h
[18] = system: Staphylococcus epidermidis; experiment: Antimicrobial activity against methicillin-resistant Staphylococcus epidermidis isolate 404/10 after 18 hrs by twofold serial broth dilution method; type: functional; details: isolate 404/10, 18 h
[19] = system: Staphylococcus epidermidis; experiment: Antimicrobial activity against methicillin-resistant Staphylococcus epidermidis isolate 405/10 after 18 hrs by twofold serial broth dilution method; type: functional; details: isolate 405/10, 18 h
[20] = system: Staphylococcus epidermidis; experiment: Antimicrobial activity against methicillin-resistant Staphylococcus epidermidis isolate 407/10 after 18 hrs by twofold serial broth dilution method; type: functional; details: isolate 407/10, 18 h
[21] = system: Staphylococcus epidermidis; experiment: Antimicrobial activity against methicillin-resistant Staphylococcus epidermidis isolate 409/10 after 18 hrs by twofold serial broth dilution method; type: functional; details: isolate 409/10, 18 h
[22] = system: Staphylococcus epidermidis; experiment: Antimicrobial activity against methicillin-resistant Staphylococcus epidermidis isolate 422/10 after 18 hrs by twofold serial broth dilution method; type: functional; details: isolate 422/10, 18 h
[23] = system: Staphylococcus epidermidis; experiment: Antimicrobial activity against methicillin-resistant Staphylococcus epidermidis isolate 424/10 after 18 hrs by twofold serial broth dilution method; type: functional; details: isolate 424/10, 18 h
[24] = system: Staphylococcus epidermidis; experiment: Antimicrobial activity against methicillin-resistant Staphylococcus epidermidis isolate 454/11 after 18 hrs by twofold serial broth dilution method; type: functional; details: isolate 454/11, 18 h
[25] = system: Staphylococcus epidermidis; experiment: Antimicrobial activity against methicillin-resistant Staphylococcus epidermidis isolate 455/11 after 18 hrs by twofold serial broth dilution method; type: functional; details: isolate 455/11, 18 h
[26] = system: Staphylococcus epidermidis; experiment: Antimicrobial activity against methicillin-resistant Staphylococcus epidermidis isolate 457/11 after 18 hrs by twofold serial broth dilution method; type: functional; details: isolate 457/11, 18 h
[27] = system: Staphylococcus epidermidis; experiment: Antimicrobial activity against methicillin-resistant Staphylococcus epidermidis isolate 458/11 after 18 hrs by twofold serial broth dilution method; type: functional; details: isolate 458/11, 18 h
[28] = system: Staphylococcus epidermidis; experiment: Antimicrobial activity against methicillin-resistant Staphylococcus epidermidis isolate 459/11 after 18 hrs by twofold serial broth dilution method; type: functional; details: isolate 459/11, 18 h
[29] = system: Staphylococcus epidermidis; experiment: Antimicrobial activity against methicillin-resistant Staphylococcus epidermidis isolate 460/11 after 18 hrs by twofold serial broth dilution method; type: functional; details: isolate 460/11, 18 h
[30] = system: Staphylococcus epidermidis; experiment: Antimicrobial activity against methicillin-resistant Staphylococcus epidermidis isolate 461/11 after 18 hrs by twofold serial broth dilution method; type: functional; details: isolate 461/11, 18 h
[31] = system: Staphylococcus epidermidis; experiment: Antimicrobial activity against methicillin-resistant Staphylococcus epidermidis isolate 470/11 after 18 hrs by twofold serial broth dilution method; type: functional; details: isolate 470/11, 18 h
[32] = system: Staphylococcus epidermidis; experiment: Bactericidal activity against methicillin-resistant Staphylococcus epidermidis isolate 403/10 after 24 hrs; type: functional; details: isolate 403/10, 24 h, read-out: MBC99.9
[33] = system: Staphylococcus epidermidis; experiment: Bactericidal activity against methicillin-resistant Staphylococcus epidermidis isolate 404/10 after 24 hrs; type: functional; details: isolate 404/10, 24 h, read-out: MBC99.9
[34] = system: Staphylococcus epidermidis; experiment: Bactericidal activity against methicillin-resistant Staphylococcus epidermidis isolate 407/10 after 24 hrs; type: functional; details: isolate 407/10, 24 h, read-out: MBC99.9
[35] = system: Staphylococcus epidermidis; experiment: Bactericidal activity against methicillin-resistant Staphylococcus epidermidis isolate 424/10 after 24 hrs; type: functional; details: isolate 424/10, 24 h, read-out: MBC99.9
[36] = system: Staphylococcus epidermidis; experiment: Bactericidal activity against methicillin-resistant Staphylococcus epidermidis isolate 454/11 after 24 hrs; type: functional; details: isolate 454/11, 24 h, read-out: MBC99.9
[37] = system: Staphylococcus epidermidis; experiment: Bactericidal activity against methicillin-resistant Staphylococcus epidermidis isolate 455/11 after 24 hrs; type: functional; details: isolate 455/11, 24 h, read-out: MBC99.9
[38] = system: Staphylococcus epidermidis; experiment: Bactericidal activity against methicillin-resistant Staphylococcus epidermidis isolate 458/11 after 24 hrs; type: functional; details: isolate 458/11, 24 h, read-out: MBC99.9
[39] = system: Staphylococcus epidermidis; experiment: Bactericidal activity against methicillin-resistant Staphylococcus epidermidis isolate 459/11 after 24 hrs; type: functional; details: isolate 459/11, 24 h, read-out: MBC99.9
[40] = system: Staphylococcus epidermidis; experiment: Bactericidal activity against methicillin-resistant Staphylococcus epidermidis isolate 460/11 after 24 hrs; type: functional; details: isolate 460/11, 24 h, read-out: MBC99.9
[41] = system: Staphylococcus epidermidis; experiment: Bactericidal activity against methicillin-resistant Staphylococcus epidermidis isolate 470/11 after 24 hrs; type: functional; details: isolate 470/11, 24 h, read-out: MBC99.9
Bacillus subtilis = experiment: Genotoxicity in rec-negative Bacillus subtilis M45 at 2 ug/9 mm disc after 24 hrs by disc diffusion method; type: toxicity, organism-based

Structure (SMILES): CC[C@@H](C(=O)[C@@H](C)[C@@H](O)[C@H](C)[C@@H]1O[C@@H]([C@@H](CC)C(=O)N(CC)CC)CC[C@@H]1C)[C@H]1O[C@]2(C=C[C@@H](O)[C@]3(CC[C@@](C)([C@H]4CC[C@](O)(CC)[C@H](C)O4)O3)O2)[C@H](C)C[C@@H]1C
- MIC (Staphylococcus aureus [1]): 2 µg/mL (≈ 2.48 µM)
- MIC (Staphylococcus aureus [2]): 4 µg/mL (≈ 4.96 µM)
- MIC [3]: 2 µg/mL (≈ 2.48 µM)
- MIC [4]: 4 µg/mL (≈ 4.96 µM)
- MIC (Escherichia coli [5]): > 256 µg/mL
- MIC (Escherichia coli [6]): > 256 µg/mL
- MIC (Pseudomonas aeruginosa [7]): > 256 µg/mL
- MIC (Pseudomonas aeruginosa [8]): > 256 µg/mL
- MIC (Pseudomonas aeruginosa [9]): > 256 µg/mL
- MIC (Bacillus anthracis): 1 µg/mL (≈ 1.24 µM)
- MBC (Staphylococcus aureus [10]): 64 µg/mL (≈ 79.4 µM)
- MBC (Staphylococcus aureus [11]): 64 µg/mL (≈ 79.4 µM)
- MBC [12]: 64 µg/mL (≈ 79.4 µM)
- MBC [13]: 128 µg/mL (≈ 159 µM)
- MBC (Escherichia coli [14]): > 256 µg/mL
- MBC (Pseudomonas aeruginosa [15]): > 256 µg/mL
- MBC (Pseudomonas aeruginosa [16]): > 256 µg/mL
- MIC [17]: 4 µg/mL (≈ 4.96 µM)
- MIC [18]: 4 µg/mL (≈ 4.96 µM)
- MIC [19]: 8 µg/mL (≈ 9.92 µM)
- MIC [20]: 4 µg/mL (≈ 4.96 µM)
- MIC [21]: 4 µg/mL (≈ 4.96 µM)
- MIC [22]: 8 µg/mL (≈ 9.92 µM)
- MIC [23]: 8 µg/mL (≈ 9.92 µM)
- MIC [24]: 4 µg/mL (≈ 4.96 µM)
- MIC [25]: 8 µg/mL (≈ 9.92 µM)
- MIC [26]: 4 µg/mL (≈ 4.96 µM)
- MIC [27]: 4 µg/mL (≈ 4.96 µM)
- MIC [28]: 4 µg/mL (≈ 4.96 µM)
- MIC [29]: 8 µg/mL (≈ 9.92 µM)
- MIC [30]: 4 µg/mL (≈ 4.96 µM)
- MIC [31]: 4 µg/mL (≈ 4.96 µM)
- MBC [32]: 256 µg/mL (≈ 318 µM)
- MBC [33]: 256 µg/mL (≈ 318 µM)
- MBC [34]: 128 µg/mL (≈ 159 µM)
- MBC [35]: 256 µg/mL (≈ 318 µM)
- MBC [36]: 128 µg/mL (≈ 159 µM)
- MBC [37]: 256 µg/mL (≈ 318 µM)
- MBC [38]: 128 µg/mL (≈ 159 µM)
- MBC [39]: 256 µg/mL (≈ 318 µM)
- MBC [40]: 256 µg/mL (≈ 318 µM)
- MBC [41]: 128 µg/mL (≈ 159 µM)
- diameter of the inhibition zone (DIZ) (Bacillus subtilis): 26 mm

Structure (SMILES): CC[C@@H](C(=O)[C@@H](C)[C@@H](O)[C@H](C)[C@@H]1O[C@@H]([C@@H](CC)C(=O)N2CCNCC2)CC[C@@H]1C)[C@H]1O[C@]2(C=C[C@@H](O)[C@]3(CC[C@@](C)([C@H]4CC[C@](O)(CC)[C@H](C)O4)O3)O2)[C@H](C)C[C@@H]1C
- MIC (Staphylococcus aureus [1]): 64 µg/mL (≈ 78.1 µM)
- MIC (Staphylococcus aureus [2]): 128 µg/mL (≈ 156 µM)
- MIC [3]: 128 µg/mL (≈ 156 µM)
- MIC [4]: 128 µg/mL (≈ 156 µM)
- MIC (Escherichia coli [5]): > 256 µg/mL
- MIC (Escherichia coli [6]): > 256 µg/mL
- MIC (Pseudomonas aeruginosa [7]): > 256 µg/mL
- MIC (Pseudomonas aeruginosa [8]): > 256 µg/mL
- MIC (Pseudomonas aeruginosa [9]): > 256 µg/mL
- MIC (Bacillus anthracis): 64 µg/mL (≈ 78.1 µM)
- MBC (Staphylococcus aureus [10]): > 256 µg/mL
- MBC (Staphylococcus aureus [11]): > 256 µg/mL
- MBC [12]: > 256 µg/mL
- MBC [13]: > 256 µg/mL
- MBC (Escherichia coli [14]): > 256 µg/mL
- MBC (Pseudomonas aeruginosa [15]): > 256 µg/mL
- MBC (Pseudomonas aeruginosa [16]): > 256 µg/mL
- MIC [17]: 128 µg/mL (≈ 156 µM)
- MIC [18]: 64 µg/mL (≈ 78.1 µM)
- MIC [19]: 64 µg/mL (≈ 78.1 µM)
- MIC [20]: 128 µg/mL (≈ 156 µM)
- MIC [21]: 128 µg/mL (≈ 156 µM)
- MIC [22]: 128 µg/mL (≈ 156 µM)
- MIC [23]: 64 µg/mL (≈ 78.1 µM)
- MIC [24]: 128 µg/mL (≈ 156 µM)
- MIC [25]: 256 µg/mL (≈ 313 µM)
- MIC [26]: 256 µg/mL (≈ 313 µM)
- MIC [27]: 128 µg/mL (≈ 156 µM)
- MIC [28]: 64 µg/mL (≈ 78.1 µM)
- MIC [29]: 128 µg/mL (≈ 156 µM)
- MIC [30]: 256 µg/mL (≈ 313 µM)
- MIC [31]: 256 µg/mL (≈ 313 µM)
- MBC [32]: > 256 µg/mL
- MBC [33]: 256 µg/mL (≈ 313 µM)
- MBC [34]: > 256 µg/mL
- MBC [35]: > 256 µg/mL
- MBC [36]: > 256 µg/mL
- MBC [37]: > 256 µg/mL
- MBC [38]: > 256 µg/mL
- MBC [39]: > 256 µg/mL
- MBC [40]: > 256 µg/mL
- MBC [41]: > 256 µg/mL
- diameter of the inhibition zone (DIZ) (Bacillus subtilis): 14 mm
